# Results reported in ChEMBL document CHEMBL1143693, “Cancer chemopreventive effects of cycloartane-type and related triterpenoids in in vitro and in vivo models” (J Nat Prod, 2007).
# pIC50: −log10 of the molar value.
# Columns and labels:
# Human gammaherpesvirus 4 [1] = assay: Inhibition of TPA-induced Epstein-Barr virus early antigen activation in Raji cells after 48 hrs; type: functional, organism-based; settings: human gammaherpesvirus 4, Raji
# Raji = assay: Cell viability of Raji cells at 320 nM; type: functional, Homo sapiens
# [2] = Scavenging activity against NO generation in human Chang liver cells assessed as inhibition of NOR1-activation at 350 nM relative to NOR1; type: functional
# Human gammaherpesvirus 4 [3] = assay: Inhibition of TPA-induced Epstein-Barr virus early antigen activation assessed as EBV-EA induction in Raji cells at 32 nM after 48 hrs relative to TPA; values are per cent of control; settings: human gammaherpesvirus 4, Raji
# Human gammaherpesvirus 4 [4] = assay: Inhibition of TPA-induced Epstein-Barr virus early antigen activation assessed as EBV-EA induction in Raji cells at 320 nM after 48 hrs relative to TPA; values are per cent of control; settings: human gammaherpesvirus 4, Raji
# Human gammaherpesvirus 4 [5] = assay: Inhibition of TPA-induced Epstein-Barr virus early antigen activation assessed as EBV-EA induction in Raji cells at 3.2 nM after 48 hrs relative to TPA; values are per cent of control; settings: human gammaherpesvirus 4, Raji
# Human gammaherpesvirus 4 [6] = assay: Inhibition of TPA-induced Epstein-Barr virus early antigen activation assessed as EBV-EA induction in Raji cells at 0.32 nM after 48 hrs relative to TPA; values are per cent of control; settings: human gammaherpesvirus 4, Raji
SMILES,pIC50 (Human gammaherpesvirus 4 [1]),Activity (Raji),Activity [2],"level, % of control at 0.032 µM (Human gammaherpesvirus 4 [3])","level, % of control at 0.32 µM (Human gammaherpesvirus 4 [4])","level, % of control at 0.0032 µM (Human gammaherpesvirus 4 [5])","level, % of control at 0.00032 µM (Human gammaherpesvirus 4 [6])"
C=C(CC[C@@H](C)[C@H]1CC[C@@]2(C)[C@@H]3CC[C@H]4CC(=O)CC[C@@]45C[C@@]35CC[C@]12C)C(C)C,7.99,70%,1.5,33.2%,0%,73.8%,95.6%
C=C(CC[C@@H](C)[C@H]1CC[C@@]2(C)[C@@H]3CC[C@H]4[C@H](C)[C@@H](OC(C)=O)CC[C@@]45C[C@@]35CC[C@]12C)C(C)C [CYCLOEUCALENOL ACETATE],8.00,70%,1.5,32.4%,0%,73.5%,96.2%
CC(C)=CCC[C@@H](C)C1=CC[C@@]2(C)[C@@H]3CC[C@H]4C(C)(C)[C@@H](O)CC[C@@]45C[C@@]35CC[C@]12C [CIMICIFUGENOL],8.05,70%,1.8,26.8%,0%,72.6%,93.8%
C=C(CC[C@@H](C)[C@H]1CC[C@@]2(C)[C@@H]3CC[C@H]4C[C@@H](O)CC[C@@]45C[C@@]35CC[C@]12C)C(C)C,8.02,70%,1.5,30.5%,0%,72.7%,95.8%
COc1cc(/C=C/C(=O)O[C@H]2CC[C@]34C[C@]35CC[C@]3(C)[C@@H]([C@H](C)CCC=C(C)C)CC[C@@]3(C)[C@@H]5CC[C@H]4C2(C)C)ccc1O [GAMMA ORYZANOL],7.80,70%,1.5,56%,19.7%,84.7%,100%
CC(C)CCC[C@@H](C)[C@@H]1CC[C@@]2(C)[C@@H]3CC[C@H]4C(C)(C)[C@@H](O)CC[C@@]45C[C@@]35CC[C@]12C,8.03,70%,1.6,30.8%,0%,71.2%,94.2%
CC(C)C(=O)CC[C@@H](C)[C@H]1CC[C@@]2(C)[C@@H]3CC[C@H]4C(C)(C)[C@@H](O)CC[C@@]45C[C@@]35CC[C@]12C,8.09,70%,2,19.8%,0%,62.7%,90.5%
C=C(CC[C@@H](C)[C@H]1CC[C@@]2(C)[C@@H]3CC[C@H]4C[C@@H](OC(C)=O)CC[C@@]45C[C@@]35CC[C@]12C)C(C)C,8.00,70%,1.5,31.4%,0%,73.1%,96.3%
C=C(C)[C@@H](C)CC[C@@H](C)[C@H]1CC[C@@]2(C)[C@@H]3CC[C@H]4[C@H](C)[C@H](O)CC[C@@]45C[C@@]35CC[C@]12C,8.03,70%,1.8,29.3%,0%,71.5%,94.5%
C=C(C)[C@H](O)CC[C@@H](C)[C@H]1CC[C@@]2(C)[C@@H]3CC[C@H]4C(C)(C)[C@@H](O)CC[C@@]45C[C@@]35CC[C@]12C,8.19,70%,2,15%,0%,57.8%,84.4%
C=C(C)C(O)CC[C@@H](C)[C@H]1CC[C@@]2(C)[C@@H]3CC[C@H]4C(C)(C)C(=O)CC[C@@]45C[C@@]35CC[C@]12C (stereo partly drawn),8.07,70%,2,21.1%,0%,69.7%,91.2%
C[C@@H]1[C@@H](O)CC[C@]23C[C@]24CC[C@]2(C)[C@@H]([C@H](C)CC[C@H](O)C(C)(C)O)CC[C@@]2(C)[C@@H]4CC[C@@H]13,8.17,70%,1.7,17.1%,0%,61.3%,88.8%
C=C(CC[C@@H](C)[C@H]1CC[C@@]2(C)[C@@H]3CC[C@H]4C(C)(C)[C@@H](OC(=O)/C=C/c5ccc(O)c(OC)c5)CC[C@@]45C[C@@]35CC[C@]12C)C(C)C,7.80,70%,1.8,54.7%,17.6%,82%,100%
C=C(C)C(=O)CC[C@@H](C)[C@H]1CC[C@@]2(C)[C@@H]3CC[C@H]4C(C)(C)[C@@H](O)CC[C@@]45C[C@@]35CC[C@]12C,8.03,70%,1.4,25.4%,1.5%,73.1%,97.8%
CC(C)=CCC[C@@H](C)[C@H]1CC[C@@]2(C)[C@@H]3CC[C@H]4C(C)(C)C(=O)CC[C@@]45C[C@@]35CC[C@]12C [CYCLOARTENONE],8.06,70%,1.5,24.6%,2.3%,71.3%,92.6%
CC(=O)O[C@H]1CC[C@]23C[C@]24CC[C@]2(C)[C@@H]([C@H](C)CCC=C(C)C)CC[C@@]2(C)[C@@H]4CC[C@H]3C1(C)C [CYCLOARTENOL ACETATE],8.00,70%,1.8,32.3%,0%,73.1%,96.9%
C=C(CC[C@@H](C)[C@H]1CC[C@@]2(C)[C@@H]3CC[C@H]4[C@H](C)[C@H](O)CC[C@@]45C[C@@]35CC[C@]12C)C(C)C,8.03,70%,1.6,30.5%,0%,73.1%,95.9%
COC(CC[C@@H](C)[C@H]1CC[C@@]2(C)[C@@H]3CC[C@H]4C(C)(C)C(=O)CC[C@@]45C[C@@]35CC[C@]12C)C(C)(C)O (stereo partly drawn),8.06,70%,1.9,21%,0%,67.1%,94.6%
C[C@H](C/C=C/C(C)(C)O)[C@H]1CC[C@@]2(C)[C@@H]3CC[C@H]4C(C)(C)C(=O)CC[C@@]45C[C@@]35CC[C@]12C,8.07,70%,1.9,20%,0%,67.2%,90.1%
